In ChEMBL document CHEMBL1201862, “PubChem BioAssay data set” (2004):
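Interpolation was linear, between the two tested concentrations surrounding the appropriate level; five concentrations were tested over 48 hours in 96-well plates. GI50 marks 50% less growth.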 Active and inactive are the calls of the source. Cut-off read from the data, not from the text of the source: active = GI50 up to about 1.1 µM and inactive = higher.

Assays:
Test in all cases: NCI-60 cell line screen, 48 h
[1] = tested on: SF-539
[2] = tested on: CAKI-1
[3] = tested on: OVCAR-8
[4] = tested on: UO-31
[5] = tested on: T47D
[6] = tested on: UACC-62
[7] = tested on: MDA-MB-231
[8] = tested on: CCRF-CEM
[9] = tested on: A498
[10] = tested on: U-251
[11] = tested on: SK-OV-3
[12] = tested on: TK-10
[13] = tested on: MDA-MB-435
[14] = tested on: K562
[15] = tested on: UACC-257
[16] = tested on: A549
[17] = tested on: MOLT-4
[18] = tested on: HL-60
[19] = tested on: LOX IMVI
[20] = tested on: IGROV-1

Measured: GI50

N#Cc1c(-c2ccccc2)[nH]c(=O)n(C2OC(CO)C(O)C(O)C2O)c1=O (centres undefined)
inactive: [1] > 100 µM | [2] > 100 µM | [3] > 100 µM | [4] > 100 µM | [5] > 100 µM | [6] > 100 µM | [7] > 100 µM | [8] > 100 µM | [9] > 100 µM | [10] > 100 µM | [11] > 100 µM | [12] > 100 µM | [13] > 100 µM | [14] > 100 µM | [15] > 100 µM | [16] > 100 µM | [17] > 100 µM

CCCCCCCCCCCCCCCCOCC(COP(=O)([O-])OCC[n+]1ccc(N(C)C)cc1)OCC (centres undefined)
inactive: [1] 13.5 µM | [3] 19.5 µM | [4] 15.5 µM | [5] 18 µM | [6] 12.7 µM | [7] 8.55 µM | [8] 10.5 µM | [18] 1.52 µM | [10] 11.7 µM | [12] 14.9 µM | [13] 17.7 µM | [14] 19.3 µM | [16] 16.2 µM | [17] 4.52 µM | [19] 12.6 µM | [20] 16.9 µM

Cc1ccc(/N=N/c2ccc(N)cc2C)c(S(N)(=O)=O)c1
inactive: [1] > 100 µM | [2] > 100 µM | [3] 76.7 µM | [4] 63 µM | [5] 48.8 µM | [6] 88.9 µM | [7] > 100 µM | [8] 48.1 µM | [9] > 100 µM | [18] 29.6 µM | [10] > 100 µM | [11] > 100 µM | [12] 48.9 µM | [14] 75.9 µM | [15] 45.2 µM | [16] 50.5 µM | [17] 64 µM | [19] 78.5 µM | [20] 77.3 µM

Nc1ncnc2c1ncn2C1C=CC(CP(=O)(O)O)C1 (centres undefined)
inactive: [1] > 100 µM | [2] > 100 µM | [3] > 100 µM | [4] > 100 µM | [5] > 100 µM | [6] > 100 µM | [7] > 100 µM | [10] > 100 µM | [11] > 100 µM | [12] > 100 µM | [13] > 100 µM | [15] > 100 µM | [16] > 100 µM | [17] > 100 µM | [19] > 100 µM | [20] > 100 µM

CCCCCCCCC/C=C1/CC(CO)(COC(=O)C2CCCCC2)OC1=O (centres undefined)
inactive: [2] > 100 µM | [3] > 100 µM | [4] > 100 µM | [5] > 100 µM | [6] > 100 µM | [7] > 100 µM | [8] > 100 µM | [9] > 100 µM | [10] > 100 µM | [11] > 100 µM | [12] > 100 µM | [13] 98.4 µM | [14] 67.5 µM | [15] > 100 µM | [16] > 100 µM | [17] > 100 µM | [19] 72.4 µM | [20] > 100 µM

CC(=O)C12C[C@](C#N)(N3CCCCCC3)C1C=Cc1ccccc12 (some centres undefined)
inactive: [1] > 100 µM | [2] > 100 µM | [3] > 100 µM | [4] > 100 µM | [5] > 100 µM | [6] > 100 µM | [7] > 100 µM | [8] > 100 µM | [18] > 100 µM | [10] > 100 µM | [11] > 100 µM | [12] > 100 µM | [13] > 100 µM | [14] > 100 µM | [15] > 100 µM | [16] > 100 µM | [17] > 100 µM | [20] > 100 µM

COc1c(O)cc2c(c1O)C1O[C@H](CO)C(O)[C@H](O)[C@H]1OC2=O (some centres undefined)
inactive: [1] > 100 µM | [2] > 100 µM | [3] > 100 µM | [5] > 100 µM | [7] > 100 µM | [8] > 100 µM | [18] > 100 µM | [10] > 100 µM | [11] > 100 µM | [12] > 100 µM | [13] > 100 µM | [14] > 100 µM | [15] > 100 µM | [16] > 100 µM | [17] > 100 µM | [19] > 100 µM | [20] > 100 µM

CC1(C)CC(O)C(C)(C)[C@@H](O)C1 (some centres undefined)
inactive: [1] > 100 µM | [2] > 100 µM | [3] > 100 µM | [4] > 100 µM | [5] > 100 µM | [6] > 100 µM | [7] > 100 µM | [8] > 100 µM | [18] > 100 µM | [10] > 100 µM | [11] > 100 µM | [12] > 100 µM | [14] > 100 µM | [15] > 100 µM | [16] > 100 µM | [17] > 100 µM | [19] > 100 µM | [20] > 100 µM
